Assay results published in patent EP0928340B1, “INVASION-INHIBITORS FOR USE IN WOUND HEALING AND CANCER” (THE REGENTS OF THE UNIVERSITY OF MICHIGAN, priority 1996, dated 2009).
Read-outs that look alike come from different tables or passages of the source.

Legend:
[1] = tested on: DU-145 prostate cancer cells; test: SU-ECM in vitro invasion assay, human prostate cancer cells; format: cell-based; conditions: for IC100: Homo sapiens, DU-145, read-out: concentration that completely (fully) inhibits invasion
Protocol: Adult Strongylocentrotus purpuratus sea urchins were obtained from Pacific BioMarine, and their embryos were cultured to the early pluteus stage in artificial sea water at 15°C. SU-ECM were prepared from them by treatment with nonionic detergent and strerilized by dilution in the appropriate media.
[…] When appropriate, purified bovine plasma fibronectin (Sigma), purified 120 kDa chymotryptic fragment (Gibco BRL). PHSRN or PHSCN peptides (synthesized at the Biomedical Research Core Facilities of the University of Michigan), or GRGDSP or GRGESP peptides (Gibco BRL) were added to the resuspended cells prior to placement of the cells on SU-ECM. In each well of a plate used for an invasion assay, SU-ECM were placed in 0.5 ml of the appropriate medium, and 0.5ml of the resuspended cells dropped on their exterior surfaces. Invasion assays were incubated 1 to 16 hours prior to assay. If some circumstances, invasion assays were fixed in phosphate-buffered saline (PBS) with 2% formaldehyde for 5 minutes at room temperature, then rinsed into PBS.
Invasion assays were coded and scored blindly by microscopic examination under phase contrast at 200- and 400-fold magnification. Each cell contacting an SU-ECM was scored for its position relative to the exterior or interior surfaces. A cell was judged to have invaded if it was located on an interior surface below the focal plane passing through the upper surface of the SU-ECM, but above the focal plane passing through its lower surface. The minimum viability of the cells in each assay was always ascertained at the time of assay by determining the fraction of spread, adherent cells on the bottom of each well scored.
An invasion frequency is defined as the fraction of cells in contact with basement membranes which were located in their interiors at the time of assay. Thus, an invasion frequency of 1 denotes invasion by 100% of the cells in contact with basement membranes. Invasion frequencies were determined multiple times for each cell type assayed. For each type of cell assayed the mean and standard deviation of the invasion frequencies were calculated.
The method of Example 4 is employed, with the addition of varying concentrations of the PHSCN peptide.
Thus, the procedure in Example 4 provides a method for determining the inhibitory potential of the PHSCN peptide by comparing the number of cell invasions in the presence of the PHSCN peptide, with the number of cell invasions in the absence of the PHSCN peptide.
In this example, in vitro invasion of cancer cells into substrates is inhibited with peptides that have been chemically modified with protecting groups and peptides having protecting groups as well as the modification wherein an L-amino acid has been replaced with the D-isomer. PHSCN peptide, blocked PHSCN peptide, and blocked PHSCN peptide with a D-cysteine instead of the L-isomer, were tested (Figure 11).
In this example, in vitro invasion of cancer cells into substrates is inhibited with non-peptide mimetics in comparison with chemically modified peptides (on a molar basis). The peptides of Example 14 (i.e. peptides chemically modified with protecting groups and peptides having protecting groups as well as the modification wherein an L-amino acid has been replaced with the D-isomer) were compared with the non-peptide mimetics DL-N-Acetylhomocysteinethiolactone, Thiobutyrolactone, and Mercaptopropionic acid, in order to investigate the structure activity relationship for invasion inhibition by interaction with the PHSRN-binding pocket of the α5β1 fibronectin receptor (Figure 12)

[2] = molecular target: α5β1 integrin fibronectin receptor (human) (UniProt P08648); test: cell-based or functional assay
[3] = molecular target: α5β1 integrin fibronectin receptor (human) (UniProt P08648); test: cell-based or functional assay; remark: listed apart in the source
[4] = invasion inhibition, molar basis (Figure 12)

UniProt P08648, sequence (P08648 42-1049, chain 1 of 2): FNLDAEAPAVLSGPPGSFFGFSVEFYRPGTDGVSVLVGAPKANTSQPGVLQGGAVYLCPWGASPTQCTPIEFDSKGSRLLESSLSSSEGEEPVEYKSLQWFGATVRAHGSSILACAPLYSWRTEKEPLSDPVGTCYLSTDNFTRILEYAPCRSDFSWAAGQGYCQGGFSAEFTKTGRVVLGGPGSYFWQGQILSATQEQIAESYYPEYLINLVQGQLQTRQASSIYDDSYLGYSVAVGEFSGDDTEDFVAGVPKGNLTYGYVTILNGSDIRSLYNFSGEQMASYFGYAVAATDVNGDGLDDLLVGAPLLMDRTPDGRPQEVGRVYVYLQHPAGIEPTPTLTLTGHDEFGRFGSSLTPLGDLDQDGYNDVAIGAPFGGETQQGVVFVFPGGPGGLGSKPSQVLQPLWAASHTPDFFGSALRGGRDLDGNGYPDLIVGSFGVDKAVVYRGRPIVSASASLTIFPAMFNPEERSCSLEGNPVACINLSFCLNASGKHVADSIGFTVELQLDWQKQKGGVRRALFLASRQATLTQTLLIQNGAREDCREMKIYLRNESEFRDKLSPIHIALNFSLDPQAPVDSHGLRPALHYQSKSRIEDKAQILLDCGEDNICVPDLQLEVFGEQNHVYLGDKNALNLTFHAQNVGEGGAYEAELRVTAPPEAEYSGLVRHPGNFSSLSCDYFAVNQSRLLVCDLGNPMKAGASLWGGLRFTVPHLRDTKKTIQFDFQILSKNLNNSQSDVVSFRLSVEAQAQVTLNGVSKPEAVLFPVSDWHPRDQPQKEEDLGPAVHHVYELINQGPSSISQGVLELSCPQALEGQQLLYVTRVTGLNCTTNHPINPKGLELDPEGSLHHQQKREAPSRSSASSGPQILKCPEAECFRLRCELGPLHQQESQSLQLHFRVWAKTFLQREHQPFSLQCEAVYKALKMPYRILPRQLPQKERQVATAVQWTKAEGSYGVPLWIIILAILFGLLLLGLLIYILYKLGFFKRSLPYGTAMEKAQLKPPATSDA
UniProt P08648, sequence (P05556 21-798, chain 2 of 2, further chain): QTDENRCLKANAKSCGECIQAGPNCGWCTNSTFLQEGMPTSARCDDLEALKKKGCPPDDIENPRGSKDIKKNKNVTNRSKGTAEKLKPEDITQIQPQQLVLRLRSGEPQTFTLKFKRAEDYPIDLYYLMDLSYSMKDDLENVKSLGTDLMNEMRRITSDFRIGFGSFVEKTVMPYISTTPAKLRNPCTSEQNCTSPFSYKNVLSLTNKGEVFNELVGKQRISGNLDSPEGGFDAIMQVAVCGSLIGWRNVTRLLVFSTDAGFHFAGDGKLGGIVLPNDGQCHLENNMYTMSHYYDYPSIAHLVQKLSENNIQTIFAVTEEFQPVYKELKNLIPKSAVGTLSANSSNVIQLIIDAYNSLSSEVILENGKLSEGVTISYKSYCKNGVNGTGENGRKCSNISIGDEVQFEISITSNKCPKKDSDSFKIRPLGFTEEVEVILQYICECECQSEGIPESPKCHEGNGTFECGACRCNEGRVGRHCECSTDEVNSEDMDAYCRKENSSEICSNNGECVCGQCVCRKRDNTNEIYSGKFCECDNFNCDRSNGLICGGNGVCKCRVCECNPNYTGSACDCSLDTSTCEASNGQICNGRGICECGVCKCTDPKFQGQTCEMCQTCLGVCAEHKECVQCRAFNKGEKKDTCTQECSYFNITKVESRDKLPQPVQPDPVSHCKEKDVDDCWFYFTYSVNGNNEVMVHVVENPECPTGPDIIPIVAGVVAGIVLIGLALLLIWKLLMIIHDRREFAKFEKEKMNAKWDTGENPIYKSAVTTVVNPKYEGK

Row | Compound | IC100 [1] [µM] | less active than blocked PHSCN [1, 4] | less active than the unblocked PHSCN peptide [1, 4] [times] | concentration giving complete inhibition of invasion of metastatic DU145 cells into SU-ECM in medium with 10% serum [2] [ng/mL] | concentration giving complete inhibition of invasion of metastatic DU145 cells into SU-ECM in medium with 10% serum [3] [µM] | also measured
1 | O=C1CCCS1 [Thiobutyrolactone] | 30 | about 500 fold | 15 |  |  | less active than N-acetylhomocysteinethiolactone [1, 4]: 50 fold
2 | O=C(O)CCS [Mercaptopropionic acid] |  |  | 1500 |  |  | reduction of DU145 invasion ([1]; at any of the concentrations tested, medium with 10% serum (Figure 12)): ≤ 20%; less active in invasion inhibition than thiobutyrolactone [1, 4]: at least 100 times
3 | CC(=O)NC1CCSC1=O (racemic) [DL-N-Acetylhomocysteinethiolactone] | 0.6 | about 10 fold |  |  |  | more active than the unblocked PHSCN peptide [1, 4]: about 3 fold
4 | PHSCN peptide |  |  |  | 3 | 2 | 
5 | Ac-PHSCN-NH2 peptide |  |  |  | 1.3 | 0.06 | 
6 | Ac-PHSCN-NH2 [Ac-PHSCN-NH2] |  |  |  |  |  | concentration that completely inhibits invasion ([1]; medium with 10% serum (Example 14, Figure 11)): approximately 1.3 ng/ml; concentration that completely (fully) inhibits invasion ([1]; medium with 10% serum (Example 15, Figure 12)): approximately 0.06 µM
